In PMC10709440, “High-throughput ligand profile characterization in novel cell lines expressing seven heterologous insect olfactory receptors for the detection of volatile plant biomarkers” (Scientific Reports, 2023):
Several values for one entry are separate records, joined by “and”; a condition that tells them apart may be missing. Equal values may be shown once. Read-outs that look alike come from different tables or passages of the source.

Assays:
Drosophila OR13a = molecular target: T1, Drosophila OR13a (Drosophila melanogaster, UniProt Q9VXL0); test: Calcium ion fluorescence (GCaMP6) assay, OR13a stable HEK293 cell line; assay type: cell-based; conditions: for DF norm AVERAGE OR13a: normalized fluorescence change, values below 0.05 threshold given as 0
T1 construct: expressed in transfected cells
T1 sequence (Q9VXL0 1-418): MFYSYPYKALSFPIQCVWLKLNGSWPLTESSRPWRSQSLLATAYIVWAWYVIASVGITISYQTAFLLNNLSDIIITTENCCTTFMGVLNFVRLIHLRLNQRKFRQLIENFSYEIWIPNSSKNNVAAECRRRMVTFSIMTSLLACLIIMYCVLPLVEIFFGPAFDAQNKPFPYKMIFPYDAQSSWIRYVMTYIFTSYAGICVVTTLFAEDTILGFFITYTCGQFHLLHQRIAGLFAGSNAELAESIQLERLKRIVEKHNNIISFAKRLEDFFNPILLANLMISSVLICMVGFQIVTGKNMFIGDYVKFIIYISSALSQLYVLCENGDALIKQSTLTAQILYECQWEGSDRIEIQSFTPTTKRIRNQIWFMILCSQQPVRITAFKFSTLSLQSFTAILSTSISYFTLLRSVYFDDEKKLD
T1 sequence (Q9VNB5 1-486 partner): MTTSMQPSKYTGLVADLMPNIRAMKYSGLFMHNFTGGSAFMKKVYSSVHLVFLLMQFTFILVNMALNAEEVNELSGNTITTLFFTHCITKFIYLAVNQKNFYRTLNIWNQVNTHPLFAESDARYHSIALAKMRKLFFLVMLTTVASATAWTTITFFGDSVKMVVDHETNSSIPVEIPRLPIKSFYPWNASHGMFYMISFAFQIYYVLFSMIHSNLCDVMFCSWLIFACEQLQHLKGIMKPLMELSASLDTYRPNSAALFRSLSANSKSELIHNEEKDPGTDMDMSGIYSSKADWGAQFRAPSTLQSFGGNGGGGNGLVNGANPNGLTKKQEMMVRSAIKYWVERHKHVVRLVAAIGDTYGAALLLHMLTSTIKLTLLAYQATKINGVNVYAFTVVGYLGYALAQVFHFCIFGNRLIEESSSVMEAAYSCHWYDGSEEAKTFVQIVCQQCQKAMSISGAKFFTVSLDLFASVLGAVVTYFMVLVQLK
Experimental: These VUAA1 normalized ∆F values were used to compare the different receptors and ligands.
The concentration-dependent effect of the reference ligands on their cognate cell lines was examined in more detail. Twelve different ligand concentrations were measured on each cell line in an overall 0.01 μM to 100 μM concentration range with 5 repetitions with three technical replicates each time.
Twelve thousand to 18,000 cells were plated into each well of a black wall, transparent bottom 384-well microplate (Greiner) 48 h or 72 h before the measurements and were simultaneously treated with 1 μg/mL doxycycline. […] The plate has 24 columns, thus we could record responses in up to eight different cell lines in each plate. On the day of the experiment, the growth medium was replaced with 20 µL assay buffer/well (140 mM NaCl, 5 mM KCl, 2 mM CaCl2, 1 mM MgCl2, 5 mM HEPES-Na, 20 mM glucose, pH 7.3, 340 mOsm). […] Baseline fluorescence (F0) was recorded for 5 s, after which 7 µL VOC buffer (140 mM NaCl, 5 mM KCl, 2 mM CaCl2, 1 mM MgCl2, 5 mM HEPES-Na, 31 mM glucose, 0.1% DMSO, pH 7.3, 340 mOsm) was injected into each well in one row and the fluorescence response was recorded for an additional 30 s, at a rate of one read/sec. VOC solutions (VOC buffer with 4× concentration of the final measured VOC concentration, 9 µL/well was injected) were measured on the same wells in a second round with the same protocol. Each individual concentration of a specific VOC sample was recorded in three wells for the same cell line on the same microplate. The raw data were exported in xls file format, F0 and FMAX values, and the fluorescence intensity changes (∆F) were calculated in Excel (Microsoft) (Supplementary file Data summary.xlsx) using the following equation: ΔF=FMAX-F0/F0 (see also Fig. 1C). On each plate, we recorded the response of each cell line to 50 µM VUAA1. The average of these ∆F values of each cell line were used to calculate the VUAA1-normalized values for the rest of the plate, by dividing VOC response ∆F values by the average VUAA1 response ∆F value of the corresponding OR cell line. Each VOC-OR combination was measured three times as technical replicates. […] The average of these replicates were used as one ∆F and VUAA1-normalized ∆F in the following analysis.
In the next rows we tested the reference VOCs (or other VOCs known to activate the corresponding cell lines), in order to test if all cell lines are responsive. The remaining rows were used to test VOCs with unknown effect.
The recorded FMAX, F0, ∆F, VUAA1-normalized ∆F values, as well as the OR name, the name of the tested sample, and the final concentration for each well were copied into supplementary file Data summary.xlsx, that was used to summarize all the plates recorded. Here, the averages of the measurements were calculated for each receptor-VOC-concentration combination.

Drosophila OR10a = molecular target: T2, Drosophila OR10a (Drosophila melanogaster, UniProt Q9VYZ1); test: Calcium ion fluorescence (GCaMP6) assay, OR10a stable HEK293 cell line; assay type: cell-based
T2 construct: expressed in transfected cells
T2 sequence (Q9VYZ1 1-406): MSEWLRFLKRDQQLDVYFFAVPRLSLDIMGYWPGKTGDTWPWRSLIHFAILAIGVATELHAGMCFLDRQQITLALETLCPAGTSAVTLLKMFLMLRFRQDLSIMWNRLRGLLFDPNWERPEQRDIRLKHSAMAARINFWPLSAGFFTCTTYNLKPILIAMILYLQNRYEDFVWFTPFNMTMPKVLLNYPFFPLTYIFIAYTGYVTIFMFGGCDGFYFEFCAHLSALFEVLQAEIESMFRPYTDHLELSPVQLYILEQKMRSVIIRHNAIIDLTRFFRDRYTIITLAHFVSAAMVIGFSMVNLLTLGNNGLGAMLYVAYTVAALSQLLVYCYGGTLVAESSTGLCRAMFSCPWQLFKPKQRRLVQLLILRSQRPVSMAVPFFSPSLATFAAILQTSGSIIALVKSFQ
T2 sequence (Q9VNB5 1-486 partner): T1 sequence (Q9VNB5 1-486 partner)
Outline: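 HEK293 lines stably expressing each Drosophila OR with GCaMP6, doxycycline-induced (1 μg/mL) 48 or 72 h. Fluorescence recorded 5 s baseline then 30 s after VOC injection at pH 7.3; ΔF=(FMAX−F0)/F0, normalized to 50 µM VUAA1 response per line, triplicate wells averaged; concentration series 0.01–100 μM.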

[1] = HEK293, read-out: OR13a Average response (VUAA1-normalized), 1 μM VOC, 50 μM VUAA1 = 1, responses not exceeding 0.05 considered 0
[2] = HEK293, read-out: OR13a Average response (VUAA1-normalized), 10 μM VOC, 50 μM VUAA1 = 1, responses not exceeding 0.05 considered 0
[3] = HEK293, read-out: OR13a Average response (VUAA1-normalized), 100 μM VOC, 50 μM VUAA1 = 1, responses not exceeding 0.05 considered 0
[4] = HEK293, read-out: OR13a response (VUAA1-normalized response), VOC concentration 1 μM
[5] = HEK293, read-out: OR13a response (VUAA1-normalized response), VOC concentration 10 μM
[6] = HEK293, read-out: OR13a response (VUAA1-normalized response), VOC concentration 100 μM
[7] = HEK293, 1 μM VOC, 50 μM VUAA1 = 1, responses not exceeding 0.05 considered 0, read-out: OR10a Average response (VUAA1-normalized)
[8] = HEK293, 10 μM VOC, 50 μM VUAA1 = 1, responses not exceeding 0.05 considered 0, read-out: OR10a Average response (VUAA1-normalized)
[9] = HEK293, 100 μM VOC, 50 μM VUAA1 = 1, responses not exceeding 0.05 considered 0, read-out: OR10a Average response (VUAA1-normalized)
[10] = HEK293, read-out: OR10a response (VUAA1-normalized response), VOC concentration 1 μM
[11] = HEK293, read-out: OR10a response (VUAA1-normalized response), VOC concentration 10 μM
[12] = HEK293, read-out: OR10a response (VUAA1-normalized response), VOC concentration 100 μM
[13] = HEK293, read-out: OR10a Average response (VUAA1-normalized), 1 μM VOC, 50 μM VUAA1 = 1, responses not exceeding 0.05 considered 0
[14] = HEK293, read-out: OR10a Average response (VUAA1-normalized), 10 μM VOC, 50 μM VUAA1 = 1, responses not exceeding 0.05 considered 0
[15] = HEK293, read-out: OR10a Average response (VUAA1-normalized), 100 μM VOC, 50 μM VUAA1 = 1, responses not exceeding 0.05 considered 0
[16] = concentration 1, normalized fluorescence change, values below 0.05 threshold given as 0
[17] = concentration 10, normalized fluorescence change, values below 0.05 threshold given as 0
[18] = concentration 100, normalized fluorescence change, values below 0.05 threshold given as 0

Row | SMILES | activation at 1 µM (Drosophila OR13a; [1]) | activation at 10 µM (Drosophila OR13a; [2]) | activation at 100 µM (Drosophila OR13a; [3]) | activation at 1 µM (Drosophila OR13a; [4]) | activation at 10 µM (Drosophila OR13a; [5]) | activation at 100 µM (Drosophila OR13a; [6]) | DF norm AVERAGE OR13a (Drosophila OR13a; concentration 1) | DF norm AVERAGE OR13a (Drosophila OR13a; concentration 10) | DF norm AVERAGE OR13a (Drosophila OR13a; concentration 100) | DF norm AVERAGE OR10a (Drosophila OR10a) | activation at 1 µM (Drosophila OR10a; [7]) | activation at 10 µM (Drosophila OR10a; [8]) | activation at 100 µM (Drosophila OR10a; [9]) | activation at 1 µM (Drosophila OR10a; [10]) | activation at 10 µM (Drosophila OR10a; [11]) | activation at 100 µM (Drosophila OR10a; [12]) | other results
1 | CCCCCC(C)=O [2-heptanone] | 0% | 2.36% | 1.75% | 0% | 0% | 0% | 0 | 0 | 0 | 0 | 3% | 4% | 4% | 0% | 0% | 0% | 
2 | CCCCC(C)O (stereo not drawn) [2-hexanol] | 0% | 0% | 5% | 0% | 0% | 0% | 0 | 0 | 0 | 0 | 2.54% | 0% | 0% | 0% | 0% | 0% | 
3 | CCCCC(C)=O [2-hexanone] | 6% | 0% | 0% | 6% | 0% | 0% | 0.05965 | 0 | 0 |  |  |  |  | 10% | 0% | 0% | activation at 1 µM (Drosophila OR10a; [13]): 10%; activation at 10 µM (Drosophila OR10a; [14]): 0%; activation at 100 µM (Drosophila OR10a; [15]): 0%; DF norm AVERAGE OR10a (Drosophila OR10a; [16]): 0.09901; DF norm AVERAGE OR10a (Drosophila OR10a; [17]): 0; DF norm AVERAGE OR10a (Drosophila OR10a; [18]): 0
4 | CCCCCCCCC(CO)CCCCCC (stereo not drawn) [2-hexyl-1-decanol] | 7% | 0% | 0% | 7% | 0% | 0% | 0.07079 | 0 | 0 | 0.1461 and 0.1055 and 0.1938 | 15% | 11% | 19% | 15% | 11% | 19% | 
5 | CC1=CCC2C(C1)C2(C)C (stereo not drawn) [3-carene] | 0% | 0% | 0% | 0% | 0% | 0% | 0 | 0 | 0 |  |  |  |  | 7% | 0% | 0% | activation at 1 µM (Drosophila OR10a; [13]): 7%; activation at 10 µM (Drosophila OR10a; [14]): 0%; activation at 100 µM (Drosophila OR10a; [15]): 0%; DF norm AVERAGE OR10a (Drosophila OR10a; [16]): 0.0692; DF norm AVERAGE OR10a (Drosophila OR10a; [17]): 0; DF norm AVERAGE OR10a (Drosophila OR10a; [18]): 0
6 | CCCC(O)CC (stereo not drawn) [3-hexanol] | 5% | 4.43% | 1.88% | 0% | 0% | 0% | 0 | 0 | 0 |  | 16% | 2.57% | 6% | 16% | 0% | 6% | 
7 | Cc1cccc(O)c1 [3-methylphenol] | 0% | 0% | 1.35% | 0% | 0% | 0% | 0 | 0 | 0 |  | 9% | 6% | 13% | 9% | 6% | 13% | 
